For 22 molecules, IC50 results are on record in patent US20260184707A1, “PHARMACEUTICAL COMPOUNDS FOR THE TREATMENT OF COMPLEMENT MEDIATED DISORDERS” (ALEXION PHARMACEUTICALS, INC., priority 2022, published 2026).

In this assay the target is T1, Human complement C1s enzyme (Homo sapiens, UniProt P09871).
T1 construct: purified from human serum, Complement Technology, Inc; purchased Complement Technology, Inc; host or cells: human serum (plasma-derived native protein)
T1 sequence (P09871 438-688 limits assumed): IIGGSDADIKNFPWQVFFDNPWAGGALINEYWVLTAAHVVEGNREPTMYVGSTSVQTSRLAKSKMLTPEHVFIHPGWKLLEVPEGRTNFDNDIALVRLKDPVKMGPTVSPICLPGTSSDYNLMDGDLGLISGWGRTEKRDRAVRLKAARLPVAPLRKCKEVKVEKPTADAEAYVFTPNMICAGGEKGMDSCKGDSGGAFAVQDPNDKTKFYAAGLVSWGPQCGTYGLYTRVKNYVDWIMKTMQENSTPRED
T1 sequence (P09871 16-437 partner limits assumed): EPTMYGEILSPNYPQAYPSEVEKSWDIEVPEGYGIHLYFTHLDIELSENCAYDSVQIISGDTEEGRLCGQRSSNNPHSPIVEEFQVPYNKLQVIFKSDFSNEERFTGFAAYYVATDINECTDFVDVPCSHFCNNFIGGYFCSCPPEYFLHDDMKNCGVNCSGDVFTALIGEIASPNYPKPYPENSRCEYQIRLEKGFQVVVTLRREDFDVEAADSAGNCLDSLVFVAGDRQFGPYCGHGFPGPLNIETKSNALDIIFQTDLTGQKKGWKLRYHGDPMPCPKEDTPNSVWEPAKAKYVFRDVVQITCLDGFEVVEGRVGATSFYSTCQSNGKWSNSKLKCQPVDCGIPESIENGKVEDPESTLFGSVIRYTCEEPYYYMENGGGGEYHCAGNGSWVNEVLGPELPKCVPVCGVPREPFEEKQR
In words: Human C1s enzyme assay. As to conditions: human complement C1s enzyme 1.16 nM, substrate Z-L-Lys-SBzl, A405; read-out: IC50 (Stars). Format: biochemical. A digest of the protocol: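 Serum-purified human C1s (1.16 nM final) preincubated 5 min at room temperature with compound in 50 mM Tris, 1 M NaCl, pH 7.5. Z-L-Lys-SBzl and DTNB added at 100 μM each; A405 recorded every 30 s. IC50 from nonlinear regression of reaction rates versus compound concentration.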

The term IC50 denotes the concentration needed to halve the response being measured.

Take `C[C@@H](Nc1cnc(N2CCn3c(nnc3C(F)(F)F)C2)n(CC(=O)NCc2cc3cnccc3[nH]2)c1=O)c1ccc2oc3ccccc3c2c1` [Compound 313, (R)-N-((1H-pyrrolo[3,2-c]pyridin-2-yl)methyl)-2-(5-((1-(dibenzo[b,d]furan-2-yl)ethyl)-amino)-6-oxo-2-(3-(trifluoro-methyl)-5,6-dihydro-[1,2,4]triazolo[4,3-a]pyrazin-7(8H)-yl)pyrimidin-1(6H)-yl)acet-amide]: the IC50 lay within 100 to 1000 nM.
In the case of `C[C@H](Nc1ncc(-c2ccccc2F)n(CC(=O)NCc2cc3cnccc3[nH]2)c1=O)c1ccc2oc3ccccc3c2c1` [Compound 314, (S)—N-((1H-pyrrolo[3,2-c]pyridine-2-yl)methyl)-2-(3-((1-(dibenzo[b,d]furan-2-yl)ethyl)amino)-6-(2-fluorophenyl)-2-oxopyrazin-1(2H)-yl)acetamide], the IC50 was below 100 nM.
Regarding `C[C@H](Nc1cnc(-c2ccncc2)n(CC(=O)NCc2cc3cnccc3[nH]2)c1=O)c1ccc2oc3ccccc3c2c1` [Compound 315, (S)-N-((1H-pyrrolo[3,2-c]pyridin-2-yl)methyl)-2-(5-((1-(dibenzo[b,d]furan-2-yl)ethyl)-amino)-6-oxo-2-(pyridin-4-yl)-pyrimidin-1(6H)-yl)acetamide], the IC50 was below 100 nM.
Under `Cc1cnc(N[C@@H](C)c2ccc3oc4ccccc4c3c2)c(=O)n1CC(=O)NCc1cc2cnccc2[nH]1` [Compound 316, (S)-N-((1H-pyrrolo[3,2-c]pyridin-2-yl)methyl)-2-(3-((1-(dibenzo[b,d]furan-2-yl)ethyl)-amino)-6-methyl-2-oxopyrazin-1(2H)-yl)acetamide] stands below 100 nM; under `Nc1cnc(-c2ccccc2)n(CC(=O)NCc2cc3cnccc3[nH]2)c1=O` [Compound 317, N-((1H-pyrrolo[3,2-c]pyridin-2-yl)methyl)-2-(5-amino-6-oxo-2-phenylpyrimidin-1(6H)-yl)-acetamide], below 100 nM; under `C[C@@H](Nc1cnc(-c2ccccc2F)n(CC(=O)NCc2cc3cnccc3[nH]2)c1=O)c1ccc2oc3c(F)cccc3c2c1` [Compound 318, (R)—N-((1H-Pyrrolo[3,2-c]pyridine-2-yl)methyl)-2-(5-((1-(6-fluorodibenzo[b,d]furan-2-yl)ethyl)amino)-2-(2-fluorophenyl)-6-oxopyrimidin-1(6H)-yl)acetamide], below 100 nM.
In the case of `COc1ncc(N[C@H](C)c2ccc3oc4ccccc4c3c2)c(=O)n1CC(=O)NCc1cc2cnccc2[nH]1` [Compound 319, (R)—N-((1H-pyrrolo[3,2-c]pyridine-2-yl)methyl)-2-(5-((1-(dibenzo[b,d]furan-2-yl)ethyl)amino)-2-methoxy-6-oxopyrimidin-1(6H)-yl)acetamide], the IC50 is above 1000 nM.
Under `C[C@@H](Nc1cnc(-c2ncco2)n(CC(=O)NCc2cc3cnccc3[nH]2)c1=O)c1ccc2oc3ccccc3c2c1` [Compound 320, (R)-N-((1H-pyrrolo[3,2-c]pyridin-2-yl)methyl)-2-(5-((1-(dibenzo[b,d]furan-2-yl)ethyl)-amino)-2-(oxazol-2-yl)-6-oxo-pyrimidin-1(6H)-yl)acetamide] stands below 100 nM.
Under `C[C@@H](Nc1cnc(-c2ccccc2F)n(CC(=O)NCc2cc3cnccc3[nH]2)c1=O)c1coc(-c2ccccc2)n1` [Compound 321, (R)—N-((1H-pyrrolo[3,2-c]pyridine-2-yl)methyl)-2-(2-(2-fluorophenyl)-6-oxo-5-((1-(2-phenyloxazol-4-yl)ethyl)amino)pyrimidin-1(6H)-yl)acetamide] stands below 100 nM.
As for `C[C@@H](Nc1ncc(-c2ccccc2F)n(CC(=O)NCc2cc3cnccc3[nH]2)c1=O)c1ccc2oc3ccccc3c2c1` [Compound 322, (R)-N-((1H-pyrrolo[3,2-c]pyridin-2-yl)methyl)-2-(3-((1-(dibenzo[b,d]furan-2-yl)ethyl)-amino)-6-(2-fluorophenyl)-2-oxopyrazin-1(2H)-yl)acetamide], the figure is below 100 nM; as for `C[C@@H](Nc1cnc(-c2ccccn2)n(CC(=O)NCc2cc3cnccc3[nH]2)c1=O)c1ccc2oc3ccccc3c2c1` [Compound 323, (R)-N-((1H-pyrrolo[3,2-c]pyridin-2-yl)methyl)-2-(5-((1-(dibenzo[b,d]furan-2-yl)ethyl)-amino)-6-oxo-2-(pyridin-2-yl)-pyrimidin-1(6H)-yl)acetamide], below 100 nM.
For `C[C@@H](Nc1cnc(C2CCCC2)n(CC(=O)NCc2cc3cnccc3[nH]2)c1=O)c1ccc2oc3ccccc3c2c1` [Compound 324, (R)-N-((1H-pyrrolo[3,2-c]pyr-idin-2-yl)methyl)-2-(2-cyclo-pentyl-5-((1-(dibenzo[b,d]furan-2-yl)ethyl)amino)-6-oxo-pyrimidin-1(6H)-yl)acetamide], the IC50 fell in the range of 100 to 1000 nM.
As for `C[C@@H](Nc1cnc(C2=CCCCC2)n(CC(=O)NCc2cc3cnccc3[nH]2)c1=O)c1ccc2oc3ccccc3c2c1` [Compound 325, (R)-N-((1H-pyrrolo[3,2-c]pyr-idin-2-yl)methyl)-2-(2-(cyclo-hex-1-en-1-yl)-5-((1-(dibenzo [b,d]furan-2-yl)ethyl)amino)-6-oxopyrimidin-1(6H)-yl)acet-amide], the figure is below 100 nM; as for `C[C@@H](Nc1cnc(-c2ccco2)n(CC(=O)NCc2cc3cnccc3[nH]2)c1=O)c1ccc2oc3ccccc3c2c1` [Compound 326, (R)-N-((1H-pyrrolo[3,2-c]pyridin-2-yl)methyl)-2-(5-((1-(dibenzo[b,d]furan-2-yl)ethyl)-amino)-2-(furan-2-yl)-6-oxo-pyrimidin-1(6H)-yl)acetamide], below 100 nM.
Under `C[C@@H](Nc1cnc(-c2cccs2)n(CC(=O)NCc2cc3cnccc3[nH]2)c1=O)c1ccc2oc3ccccc3c2c1` [Compound 327, (R)-N-((1H-pyrrolo[3,2-c]pyridin-2-yl)methyl)-2-(5-((1-(dibenzo[b,d]furan-2-yl)ethyl)-amino)-6-oxo-2-(thiophen-2-yl)pyrimidin-1(6H)-yl)acet-amide] stands below 100 nM; under `C[C@@H](Nc1cnc(-c2cnn(C)c2)n(CC(=O)NCc2cc3cnccc3[nH]2)c1=O)c1ccc2oc3ccccc3c2c1` [Compound 328, (R)-N-((1H-pyrrolo[3,2-c]pyridin-2-yl)methyl)-2-(5-((1-(dibenzo[b,d]furan-2-yl)ethyl)-amino)-2-(1-methyl-1H-pyr-azol-4-yl)-6-oxopyrimidin-1(6H)-yl)acetamide], below 100 nM; under `C[C@@H](Nc1nccn(CC(=O)NCc2cc3cnccc3[nH]2)c1=O)c1ccc2oc3ccccc3c2c1` [Compound 329, (R)-N-((1H-pyrrolo[3,2-c]pyridin-2-yl)methyl)-2-(3-((1-(dibenzo[b,d]furan-2-yl)ethyl)-amino)-2-oxopyrazin-1(2H)-yl)acetamide], 100 to 1000 nM.
Under `O=C(Cn1c(C2CC2)ncc(NCc2ccc3oc4ccccc4c3c2)c1=O)NCc1cc2cnccc2[nH]1` [Compound 330, N-((1H-pyrrolo[3,2-c]pyridin-2-yl)methyl)-2-(2-cyclopropyl-5-((dibenzo[b,d]furan-2-yl-methyl)amino)-6-oxopyrimi-din-1(6H)-yl)acetamide] stands below 100 nM.
Take `CC(C)[C@@H](Nc1cnc(-c2ccccc2F)n(CC(=O)NCc2cc3cnccc3[nH]2)c1=O)c1ccc2oc3ccccc3c2c1` [Compound 332, (R)—N-((1H-pyrrolo[3,2-c]pyridine-2-yl)methyl)-2-(5-((1-(dibenzo[b,d]furan-2-yl)-2-methylpropyl)amino)-2-(2-fluorophenyl)-6-oxopyrimidin-1(6H)-yl)acetamide]: the IC50 is above 1000 nM.
As for `Cc1cn(CC(=O)NCc2cc3cnccc3[nH]2)c(=O)c(N[C@H](C)c2ccc3oc4ccccc4c3c2)n1` [Compound 333, (R)—N-((1H-pyrrolo[3,2-c]pyridine-2-yl)methyl)-2-(3-((1-(dibenzo[b,d]furan-2-yl)ethyl)amino)-5-methyl-2-oxopyrazin-1(2H)-yl)acetamide], the figure is below 100 nM.
Under `C[C@@H](Nc1cnc(-c2ccncc2)n(CC(=O)NCc2cc3cnccc3[nH]2)c1=O)c1ccc2oc3ccccc3c2c1` [Compound 334, (R)-N-((1H-pyrrolo[3,2-c]pyridin-2-yl)methyl)-2-(5-((1-(dibenzo[b,d]furan-2-yl)ethyl)-amino)-6-oxo-2-(pyridin-4-yl)-pyrimidin-1(6H)-yl)acetamide] stands below 100 nM; under `C[C@@H](Nc1cnc(-c2cccnc2)n(CC(=O)NCc2cc3cnccc3[nH]2)c1=O)c1ccc2oc3ccccc3c2c1` [Compound 335, (R)-N-((1H-pyrrolo[3,2-c]pyridin-2-yl)methyl)-2-(5-((1-(dibenzo[b,d]furan-2-yl)ethyl)-amino)-6-oxo-2-(pyridin-3-yl)-pyrimidin-1(6H)-yl)acetamide], below 100 nM.
